From patent publication US20060020022A1, “Enantioselective separation method” (PHARMACIA & UPJOHN COMPANY LLC, priority 2004, published 2006)
Blank lines part the entries; values can stand above or below the compound they belong to.

What was measured:
[1] = Photoracemization in ethanol in a 400-mL photoreactor with 450 W UV lamp, e.e. by enantioselective HPLC; type: physicochemical
Protocol: The mixture was irradiated and aliquots were taken at about time=0, 12, 24, 41, 60, 87, 105, 135, and 162 minutes and analyzed by HPLC.
The natural logarithm of e.e. at each time point was determined for each aliquot.
Half-lives (minutes) and specific half-lives (minutes per gram) were calculated for each concentration.
(§1) Using the procedure of Example (E), 10-g of (R)-8-ethyl-6-trifluoromethoxy-2-trifluoromethyl-2H-chromene-3-carboxylic acid was dissolved in 400 mL of ethanol to a concentration of 25-mg/mL, and the mixture was filtered to remove a small amount of insoluble material. The filtrate was placed in the photoreactor and irradiated.
as §1, with “(R)-6,8-dimethyl-2-trifluoromethyl-2H-chromene-3-carboxylic” for “(R)-8-ethyl-6-trifluoromethoxy-2-trifluoromethyl-2H-chromene-3-carboxylic”

[2] = Photoracemization in ethanol in a quartz cuvette under a UV spot lamp, e.e. by enantioselective HPLC; type: physicochemical; conditions: for e.e. by HPLC after irradiation: 50-mg/mL in ethanol, start 21% e.e. of (S), 4 W/cm^2; for ln (e.e.): 66.7-mg/mL in ethanol
Protocol: Using a column with 0.46 cm inner diameter and 250 mm length filled with […]® AD stationary phase, a 10 μL injection volume, by eluting at room temperature with mobile phase (volume proportions) 95%/5% heptane:ethanol with 0.1% trifluoroacetic acid, at room temperature, flow rate at 1 mL/minute isocratic, and detected with a photodiode array detector at 254 nm wavelength, and a run time of 10 minutes.
A 1.0-mg/mL solution of (S)-6-chloro-7-tert-butyl-2-trifluoromethyl-2H-chromene-3-carboxylic acid in ethanol was placed in a quartz cuvette and irradiated with light from a UV spot lamp that produced a 5 mm diameter spot of UV light (320-390 nm wavelength) at 4 W/cm^2 intensity.
The first aliquot was placed in a quartz cuvette and irradiated in 90-second intervals over 25 minutes with light from a UV spot lamp that produced a 5 mm diameter spot of UV light (320-390 nm wavelength) at 4 W/cm^2 intensity to give a solution with 7.4% e.e. by HPLC. The second aliquot was placed in a quartz cuvette and irradiated continuously over 25 minutes with light from the UV spot lamp to give a solution with 12% e.e. by HPLC.
A 40-mg/mL solution of (S)-6-chloro-7-tert-butyl-2-trifluoromethyl-2H-chromene-3-carboxylic acid in ethanol was placed in a quartz cuvette and irradiated with light from a UV spot lamp that produced a 5 mm diameter spot of UV light (320-390 nm wavelength) at 4 W/cm^2 intensity. Aliquots were taken at time=0, 1, 2, 4, 8, 12, and 16 minutes and analyzed by HPLC. The experiment was repeated. A rate constant k for each of the two experiments (k1 and k2) was calculated using the following equation: [formula] wherein t is the time in minutes, C is the concentration of chromene in moles per liter, and ln (e.e.) is the natural logarithm of percent enantiomeric excess. The rate constant k1 was 0.0764/minute and k2 was 0.0787/minute. A half-live τ for each of the two experiments (τ1 and τ2) was calculated using the following equation: [formula] […] A specific half-life of about 30 minutes per gram of enantiomer was calculated.
The procedure of Example (C) was repeated except the concentration of (S)-6-chloro-7-tert-butyl-2-trifluoromethyl-2H-chromene-3-carboxylic acid in ethanol was 66.7-mg/mL. Aliquots were taken at time=0, 1, 2, 4, 8, 12, and 16 minutes and analyzed by HPLC. The natural logarithm of e.e. at each time point was determined for each aliquot. […] The natural logarithm of e.e. data is provided below in Table 1 in the row labeled “ln (e.e.).”

[3] = 10-g in 400 mL ethanol, 25-mg/mL, t=5 minutes

ln (e.e.) [1, 3]: about 4.3 | ln (e.e.) ([1]; 10-g in 400 mL ethanol, 25-mg/mL, t=95 minutes): about 1.4
Compound: CCc1cc(OC(F)(F)F)cc2c1O[C@@H](C(F)(F)F)C(C(=O)O)=C2 [(R)-8-ethyl-6-trifluoromethoxy-2-trifluoromethyl-2H-chromene-3-carboxylic acid]

e.e. by HPLC after irradiation ([2]; irradiated continuously over 25 minutes): 12% | e.e. by HPLC after irradiation ([2]; irradiated in 90-second intervals over 25 minutes): 7.4%
Compound: CC(C)(C)c1cc2c(cc1Cl)C=C(C(=O)O)C(C(F)(F)F)O2 [(S)- and (R)-6-chloro-7-tert-butyl-2-trifluoromethyl-2H-chromene-3-carboxylic acid]

τ ([1]; 4.00 g enantiomer, 10.0 mg/mL in ethanol): 9.08 min | τ ([1]; 8.00 g enantiomer, 20.0 mg/mL in ethanol): 16.38 min | τ ([1]; 10.00 g enantiomer, 25.00 mg/mL in ethanol): 19.68 min | τ ([1]; 13.00 g enantiomer, 32.5 mg/mL in ethanol): 22.57 min | τ ([1]; 16.00 g enantiomer, 40.0 mg/mL in ethanol, from Example (E)): 31.65 min | rate constant k ([1]; 16 g in 400 mL ethanol, 40-g/L): 0.0109 min⁻¹ | τ ([1]; 20.04 g enantiomer, 50.1 mg/mL in ethanol): 31.39 min | ln (e.e.) ([1]; 40-g/L in ethanol, time 0 minutes): 4.5 | ln (e.e.) ([1]; 40-g/L in ethanol, time 12 minutes): 4.3 | ln (e.e.) ([1]; 40-g/L in ethanol, time 24 minutes): 4.0 | ln (e.e.) ([1]; 40-g/L in ethanol, time 41 minutes): 3.6 | ln (e.e.) ([1]; 40-g/L in ethanol, time 60 minutes): 3.2 | ln (e.e.) ([1]; 40-g/L in ethanol, time 87 minutes): 2.7 | ln (e.e.) ([1]; 40-g/L in ethanol, time 105 minutes): 2.2 | ln (e.e.) ([1]; 40-g/L in ethanol, time 135 minutes): 1.6 | ln (e.e.) ([1]; 40-g/L in ethanol, time 162 minutes): 1.1
Compound: CC(C)(C)c1cc2c(cc1Cl)C=C(C(=O)O)[C@H](C(F)(F)F)O2 [(R)-6-chloro-7-tert-butyl-2-trifluoromethyl-2H-chromene-3-carboxylic acid]

ln (e.e.) [1, 3]: about 4.2 | ln (e.e.) ([1]; 10-g in 400 mL ethanol, 25-mg/mL, t=105 minutes): about 1.0
Compound: Cc1cc(C)c2c(c1)C=C(C(=O)O)[C@H](C(F)(F)F)O2 [(R)-6,8-dimethyl-2-trifluoromethyl-2H-chromene-3-carboxylic acid]

HPLC finding after UV irradiation ([2]; 1.0-mg/mL in ethanol, UV 320-390 nm at 4 W/cm^2, after 30 minutes): racemic mixture | rate constant k1 ([2]; 40-mg/mL in ethanol, first experiment): 0.0764 min⁻¹ | rate constant k2 ([2]; 40-mg/mL in ethanol, repeated experiment): 0.0787 min⁻¹ | ln (e.e.) ([2]; time 0 minutes): 4.4 | ln (e.e.) ([2]; time 1 minute): 4.3 | ln (e.e.) ([2]; time 2 minutes): 4.2 | ln (e.e.) ([2]; time 4 minutes): 4.0 | ln (e.e.) ([2]; time 8 minutes): 3.8 | ln (e.e.) ([2]; time 12 minutes): 3.4 | ln (e.e.) ([2]; time 16 minutes): 3.3
Compound: CC(C)(C)c1cc2c(cc1Cl)C=C(C(=O)O)[C@@H](C(F)(F)F)O2 [(S)-6-chloro-7-tert-butyl-2-trifluoromethyl-2H-chromene-3-carboxylic acid]
